Patent publication US9066947B2, “Indolyl-substituted pyrazino[1,2-b]isoquinolines for cancer treatment” (Everest Biosciences, Inc., priority 2009, dated 2015)

What was measured:
Format in all cases: cell-based, human
[1] = tested on: PC-3 prostate cancer cells; assay: Cell cycle analysis
Procedure: (§1) Hormone-independent and metastatic PC-3 prostate cancer cells were purchased from the American Type Culture Collection (Manassas, Va., USA) and cultured in RPMI-1640 supplemented with 10% fetal bovine serum. Etoposide was purchased from Sigma, Avastin from Roche.
Cells were harvested after the treatment, then fixed in ice-cold 70% EtOH. Cells then were washed with PBS and incubated in DNA staining buffer, containing 1 mg/ml sodium citrate (Sigma), 0.1 mg/ml propidium iodide (Sigma), 3 ul/ml TritonX-100, 0.02 mg/ml RNaseA (Sigma) for 30 min at 4° C. The cell cycle profiles were measured in a FACS Calibur cytofluorometer (BD) and analyzed using FCS Express Professional (De NoVo software, CA, USA) and Multicycle (Phoenix Flow Systems, Inc., CA, USA) softwares.

[2] = tested on: PC-3 prostate cancer cells; assay: Cell proliferation assay (trypan blue viable cell count) and IC50 determination; settings: PC-3 cells; for IC50: Homo sapiens, viable cells after 48 hours, read-out: IC50 for cell growth inhibition; for concentration from which statistically significant cell growth inhibition started: 48 hours
Procedure: All new synthesized compounds and Etoposide were first dissolved in 100% DMSO at initial concentration of 100 mM, and then diluted at final concentration of 200 uM in culture medium. Commercial form of Avastin (25 mg/ml) was diluted to appropriate concentrations in culture medium.
as §1
For cell counting a total of 6×10^4 cells at a density of 0.3×10^6/ml were seeded in 96-well plate. The cells were treated with compounds, Etoposide or Avastin as positive controls at 1 uM, 5 uM, 10 uM, 20 uM, 50 uM, 100 uM for 48 hours. For Avastin 5 uM, 20 uM and 50 uM concentrations were used. The cells were labeled with trypan blue and the viable cells were quantified.

[3] = tested on: PC-3 prostate cancer cells; assay: Annexin V-apoptosis assay; settings: 48 hours; for apoptotic cell number versus control and Etoposide: 50 uM and 100 uM
Procedure: as §1
Cells were treated with 50 uM and 100 uM compounds and Etoposide for 48 hours, harvested, washed with PBS and resuspended in binding buffer (0.01 M HEPES pH 7.4, 0.14 M NaCl, […] CaCl2) (BD Bioscience, san Jose, Calif., USA), stained with […] annexin V and 7-AAD (BD Bioscience). The cells were incubated for 15 min at room temperature in the dark, and the rate of apoptosis was measured by flow cytometry (Calibur, BD) and analyzed using FCS Express Professional software (De NoVo software, CA, USA).

IC50 [2] [µM] | Compound | G0/G1, % ([1]; 50 uM) [%] | S + G2 + M, % ([1]; 50 uM) [%] | G2/M phase blockage ([1]; 50 uM and 100 uM, analogue 3 statement at 100 uM) | G0/G1, % ([1]; 100 uM) [%] | S + G2 + M, % ([1]; 100 uM) [%] | apoptotic cell number versus control and Etoposide [3] | Early apoptosis, % ([3]; 50 uM) [%] | Late apoptosis/necrosis, % ([3]; 50 uM) [%] | Total, % (apoptosis) ([3]; 50 uM) [%] | Early apoptosis, % ([3]; 100 uM) [%] | Late apoptosis/necrosis, % ([3]; 100 uM) [%] | Total, % (apoptosis) ([3]; 100 uM) [%] | concentration from which statistically significant cell growth inhibition started [2] [µM] | effect on PC-3 cell number ([2]; 48 hours (FIG. 12))
36 | CN1CC(=O)N2[C@H](c3c[nH]c4ccc(Cl)cc34)c3cc4c(cc3C[C@H]2C1=O)OCO4 [Analogue 1, (2S,8S)-2-(5-chloro-1H-indol-3-yl)-6-methyl-13,15-dioxa-3,6-diazatetracyclo-[8.7.0.0^3,8.0^12,16]heptadeca-1(10),11,16-triene-4,7-dione] | 63.26 | 36.74 | not | 60.44 | 39.56 | increasing in both early and late apoptotic cell number | 10.98 | 4.23 | 15.21 | 16.83 | 8.29 | 25.12 | – | –
60 | COc1ccc2[nH]cc([C@@H]3c4cc5c(cc4C[C@H]4C(=O)N(C)CC(=O)N34)OCO5)c2c1 [Analogue 2, (2S,8S)-2-(5-methoxy-1H-indol-3-yl)-6-methyl-13,15-dioxa-3,6-diazatetracyclo[8.7.0.0^3,8.0^12,16]heptadeca-1(10),11,16-triene-4,7-dione] | – | – | – | – | – | – | – | – | – | – | – | – | 5 | –
32 | CN1CC(=O)N2[C@H](c3c[nH]c4c3ccc3ccccc34)c3cc4c(cc3C[C@H]2C1=O)OCO4 [Analogue 3, (2S,8S)-6-methyl-2-{1H-naphtho[1,2-b]pyrrol-3-yl}-13,15-dioxa-3,6-diazatetracyclo[8.7.0.0^3,8.0^12,16]heptadeca-1(10),11,16-triene-4,7-dione] | 67.52 | 32.48 | – | 51.77 | 48.23 | increasing in both early and late apoptotic cell number | 15.21 | 6.55 | 21.76 | 17.51 | 5.52 | 23.03 | 5 | –
30 | CN1CC(=O)N2[C@H](c3cn(C)c4ccccc34)c3cc4c(cc3C[C@H]2C1=O)OCO4 [Analogue 4, (2S,8S)-6-methyl-2-(1-methyl-1H-indol-3-yl)-13,15-dioxa-3,6-diazatetracyclo-[8.7.0.0^3,8.0^12,16]heptadeca-1(10),11,16-triene-4,7-dione] | – | – | – | – | – | – | – | – | – | – | – | – | 10 | –
– | CN1CC(=O)N2[C@H](c3cn(Cc4ccccc4)c4ccccc34)c3cc4c(cc3C[C@H]2C1=O)OCO4 [Analogue 5, (2S,8S)-2-(1-benzyl-1H-indol-3-yl)-6-methyl-13,15-dioxa-3,6-diazatetracyclo-[8.7.0.0^3,8.0^12,16]heptadeca-1(10),11,16-triene-4,7-dione] | – | – | – | – | – | – | – | – | – | – | – | – | – | resulted in cell reduction
